Structures can show the parent of a compound that is named as a salt.

These results are taken from US20220402935A1, “HETEROCYCLIC COMPOUND” (FIMECS, INC., priority 2019, published 2022).

One assay has as its target T1, IRAK-M (Homo sapiens, UniProt Q9Y616).
T1 sequence (Q9Y616 1-596): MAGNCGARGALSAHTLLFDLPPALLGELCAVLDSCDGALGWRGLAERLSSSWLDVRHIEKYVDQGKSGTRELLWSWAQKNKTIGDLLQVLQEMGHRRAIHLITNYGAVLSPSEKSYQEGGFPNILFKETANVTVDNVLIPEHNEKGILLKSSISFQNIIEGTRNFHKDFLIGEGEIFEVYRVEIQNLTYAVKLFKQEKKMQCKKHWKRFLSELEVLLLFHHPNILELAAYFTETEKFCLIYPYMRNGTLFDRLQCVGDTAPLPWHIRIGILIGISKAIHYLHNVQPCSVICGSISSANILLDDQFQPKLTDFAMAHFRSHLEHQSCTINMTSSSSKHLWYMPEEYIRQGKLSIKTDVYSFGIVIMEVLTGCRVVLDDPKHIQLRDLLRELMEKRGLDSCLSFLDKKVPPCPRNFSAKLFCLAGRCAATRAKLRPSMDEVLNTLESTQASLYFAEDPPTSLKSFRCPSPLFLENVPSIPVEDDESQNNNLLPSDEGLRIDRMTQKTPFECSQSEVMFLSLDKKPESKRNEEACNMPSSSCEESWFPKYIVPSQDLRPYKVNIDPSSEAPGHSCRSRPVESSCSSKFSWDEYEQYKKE
The experiment in a line: IRAK-M binding inhibitory activity (KINOMEscan active site-dependent competitive assay). Also noted: purchased Eurofins Discover X. To be noted: concentration of the test compound 1 μM; first symbol of cell; read-out: IRAK-M binding inhibition activity % Ctrl. On the procedure:
IRAK-M binding inhibitory activity was evaluated using active site-dependent competitive assay KINOMEscan® provided by Eurofins Discover X (Goldstein, D. M. et al. High-throughput kinase profiling as a platform for drug discovery. Nat. Rev. Drug Discovery. 7, 391-397 (2008)). IRAK-M binding inhibitory activity of the test compound was evaluated. […] The “% Ctrl” is calculated by the following formula.
(test compound signal−positive control compound signal)/(negative control compound signal−positive control compound signal)×100
Negative control compound=DMSO (100 Ctrl)
Positive control compound=control compound (0%×Ctrl)
For `C=CCOc1cc(C(C)N2CCC(Oc3ccnc4cc(C)sc34)CC2)on1` (racemic) [Ref. example 7, 3-(allyloxy)-5-(1-(4-((2-methylthieno[3,2-b]pyridin-7-yl)oxy)piperidin-1-yl)ethyl)isoxazole (racemate)], the remaining binding at 1 µM is less than 25%.
For `Cc1ncsc1-c1ccc(CNC(=O)[C@@H]2C[C@@H](O)CN2C(=O)[C@H](C(C)C)N2Cc3ccccc3C2=O)c(OCCOCCOCCOc2cc(CN3CCC(Oc4ccnc5ccsc45)CC3)on2)c1` [Example 62, (2S,4R)-4-hydroxy-1-((S)-3-methyl-2-(1-oxoisoindolin-2-yl)butanoyl)-N-(4-(4-methylthiazol-5-yl)-2-(2-(2-(2-((5-((4-(thieno[3,2-b]pyridin-7-yloxy)piperidin-1-yl)methyl)isoxazol-3-yl)oxy)ethoxy)ethoxy)ethoxy)benzyl)pyrrolidine-2-carboxamide], the remaining binding at 1 µM was in the range of 50 to 75%.
As to `Cc1ncsc1-c1ccc(CNC(=O)[C@@H]2C[C@@H](O)CN2C(=O)[C@H](C(C)C)N2Cc3ccccc3C2=O)c(OCCOCCOc2cc(CN3CCC(Oc4ccnc5ccsc45)CC3)on2)c1` [Example 63, (2S,4R)-4-hydroxy-1-((S)-3-methyl-2-(1-oxoisoindolin-2-yl)butanoyl)-N-(4-(4-methylthiazol-5-yl)-2-(2-(2-((5-((4-(thieno[3,2-b]pyridin-7-yloxy)piperidin-1-yl)methyl)isoxazol-3-yl)oxy)ethoxy)ethoxy)benzyl)pyrrolidine-2-carboxamide], the remaining binding at 1 µM was less than 25%.
With `Cc1ncsc1-c1ccc(CNC(=O)[C@@H]2C[C@@H](O)CN2C(=O)[C@H](C(C)C)N2Cc3ccccc3C2=O)c(OCCOCCOCCOCCOc2cc(CN3CCC(Oc4ccnc5ccsc45)CC3)on2)c1` [Example 64, (2S,4R)-4-hydroxy-1-((S)-3-methyl-2-(1-oxoisoindolin-2-yl)butanoyl)-N-(4-(4-methylthiazol-5-yl)-2-(2-(2-(2-(2-((5-((4-(thieno[3,2-b]pyridin-7-yloxy)piperidin-1-yl)methyl)isoxazol-3-yl)oxy)ethoxy)ethoxy)ethoxy)ethoxy)benzyl)pyrrolidine-2-carboxamide], the remaining binding at 1 µM was not below 75%.
Same read-out and setting: in the case of `Cc1ccc(NS(=O)(=O)c2ccc(CNC(=O)COCCOCCOc3cc(CN4CCC(Oc5ccnc6ccsc56)CC4)on3)cc2)c2[nH]cc(C#N)c12` [Example 68, N-(4-(N-(3-cyano-4-methyl-1H-indol-7-yl)sulfamoyl)benzyl)-2-(2-(2-((5-((4-(thieno[3,2-b]pyridin-7-yloxy)piperidin-1-yl)methyl)isoxazol-3-yl)oxy)ethoxy)ethoxy)acetamide] it was 25 to 50%.
On the same count and under the same terms, then `Cc1ccc(NS(=O)(=O)c2ccc(CNC(=O)COCCOCCOCCOc3cc(CN4CCC(Oc5ccnc6ccsc56)CC4)on3)cc2)c2[nH]cc(C#N)c12` [Example 69, N-(4-(N-(3-cyano-4-methyl-1H-indol-7-yl)sulfamoyl)benzyl)-2-(2-(2-(2-((5-((4-(thieno[3,2-b]pyridin-7-yloxy)piperidin-1-yl)methyl)isoxazol-3-yl)oxy)ethoxy)ethoxy)ethoxy)acetamide], with 25 to 50%; and `Cc1ccc(NS(=O)(=O)c2ccc(CNC(=O)COCCOc3cc(CN4CCC(Oc5ccnc6ccsc56)CC4)on3)cc2)c2[nH]cc(C#N)c12` [Example 70, N-(4-(N-(3-cyano-4-methyl-1H-indol-7-yl)sulfamoyl)benzyl)-2-(2-((5-((4-(thieno[3,2-b]pyridin-7-yloxy)piperidin-1-yl)methyl)isoxazol-3-yl)oxy)ethoxy)acetamide], with less than 25%.
For the molecule `Oc1cc(CN2CCC(Oc3ccnc4ccsc34)CC2)on1` [Ref. example 4, 5-((4-(thieno[3,2-b]pyridin-7-yloxy)piperidin-1-yl)methyl)isoxazol-3-ol], the remaining binding at 1 µM lay in the range of 50 to 75%.
As for `C=CCOc1cc(C(C)N2CCC(Oc3ccnc4cc(C)sc34)CC2)on1` (stereo not drawn) [Ref. example 8, 3-(allyloxy)-5-(1-(4-((2-methylthieno[3,2-b]pyridin-7-yl)oxy)piperidin-1-yl)ethyl)isoxazole (enantiomer)], the remaining binding at 1 µM was less than 25%.
Take `c1cc(OC2CCN(Cc3cc(OC[C@@H]4CCCN4)no3)CC2)c2sccc2n1` [Ref. example 10, (S)-3-(Pyrrolidin-2-ylmethoxy)-5-((4-(thieno[3,2-b]pyridin-7-yloxy)piperidin-1-yl)methyl)isoxazole trihydrochloride]: the remaining binding at 1 µM is less than 25%.
In the case of `NC(=O)c1ccc(Nc2ncnc3ccsc23)c(OC2CCOC2)c1` (stereo not shown) [Ref. example 11, 3-((tetrahydrofuran-3-yl)oxy)-4-(thieno[3,2-d]pyrimidin-4-ylamino)benzamide], the remaining binding at 1 µM fell in the range of 50 to 75%.
The same measure, in the same setting: in the case of `c1ccc(Nc2ncnc3cc(-c4ccccc4)sc23)cc1` [Ref. example 12, N,6-diphenylthieno[3,2-d]pyrimidin-4-amine] it was not below 75%; in that of `COc1ccccc1Nc1ncnc2cc(-c3ccccc3)sc12` [Ref. example 13, N-(2-methoxyphenyl)-6-phenylthieno[3,2-d]pyrimidin-4-amine], not below 75%.
As to `c1ccc(-c2cc3ncnc(NCC4CC4)c3s2)cc1` [Ref. example 14, N-(cyclopropylmethyl)-6-phenylthieno[3,2-d]pyrimidin-4-amine], the remaining binding at 1 µM was in the range of 25 to 50%.
For `c1ccc(-c2cc3ncnc(Nc4ccccn4)c3s2)cc1` [Ref. example 15, 6-phenyl-N-(pyridin-2-yl)thieno[3,2-d]pyrimidin-4-amine], the remaining binding at 1 µM fell in the range of 25 to 50%.
For the molecule `c1ccc(-c2cc3ncnc(NCc4cccnc4)c3s2)cc1` [Ref. example 16, 6-phenyl-N-(pyridin-3-ylmethyl)thieno[3,2-d]pyrimidin-4-amine], the remaining binding at 1 µM lay in the range of 50 to 75%.
For `c1ccc(CCNc2ncnc3cc(-c4ccccc4)sc23)cc1` [Ref. example 17, N-phenethyl-6-phenylthieno[3,2-d]pyrimidin-4-amine], the remaining binding at 1 µM is not below 75%.
With `NC(=O)c1ccc(Nc2ncnc3ccsc23)cc1` [Ref. example 18, 4-(thieno[3,2-d]pyrimidin-4-ylamino)benzamide], the remaining binding at 1 µM was in the range of 50 to 75%.

Still in this assay, the particulars now being: second symbol of cell; read-out: IRAK-M binding inhibition IC50 value.
Regarding `C=CCOc1cc(C(C)N2CCC(Oc3ccnc4ccsc34)CC2)on1` (single isomer, unassigned) [Ref. example 5, 3-(allyloxy)-5-(1-(4-(thieno[3,2-b]pyridin-7-yloxy)piperidin-1-yl)ethyl)isoxazole (enantiomer)], the IC50 (in general, the concentration that gives 50% inhibition) is 30 to 100 nM.
On the same count and under the same terms, then `C=CCOc1cc(C(C)N2CCC(Oc3ccnc4ccsc34)CC2)on1` (single isomer, unassigned) [Ref. example 6, 3-(allyloxy)-5-(1-(4-(thieno[3,2-b]pyridin-7-yloxy)piperidin-1-yl)ethyl)isoxazole (enantiomer)], with 100 to 300 nM; and `Cc1ncsc1-c1ccc(CNC(=O)[C@@H]2C[C@@H](O)CN2C(=O)[C@@H](NC(=O)COCCOCCOCCOc2cc(CN3CCC(Oc4ccnc5ccsc45)CC3)on2)C(C)(C)C)cc1` [Example 61, (2S,4R)-1-((S)-2-(tert-butyl)-4-oxo-14-((5-((4-(thieno[3,2-b]pyridin-7-yloxy)piperidin-1-yl)methyl)isoxazol-3-yl)oxy)-6,9,12-trioxa-3-azatetradecanoyl)-4-hydroxy-N-(4-(4-methylthiazol-5-yl)benzyl)pyrrolidine-2-carboxamide], with 300 to 1000 nM; and `O=C1CCC(N2C(=O)c3cccc(OCCOCCOCCOc4cc(CN5CCC(Oc6ccnc7ccsc67)CC5)on4)c3C2=O)C(=O)N1` (stereo not shown) [Example 65, 2-(2,6-dioxopiperidin-3-yl)-4-(2-(2-(2-((5-((4-(thieno[3,2-b]pyridin-7-yloxy)piperidin-1-yl)methyl)isoxazol-3-yl)oxy)ethoxy)ethoxy)ethoxy)isoindoline-1,3-dione], with 300 to 1000 nM.
For `O=C1CCC(N2C(=O)c3cccc(OCCOCCOc4cc(CN5CCC(Oc6ccnc7ccsc67)CC5)on4)c3C2=O)C(=O)N1` (stereo not shown) [Example 66, 2-(2,6-dioxopiperidin-3-yl)-4-(2-(2-((5-((4-(thieno[3,2-b]pyridin-7-yloxy)piperidin-1-yl)methyl)isoxazol-3-yl)oxy)ethoxy)ethoxy)isoindoline-1,3-dione], the IC50 fell in the range of 100 to 300 nM.
As to `O=C1CCC(N2C(=O)c3cccc(OCCOCCOCCOCCOc4cc(CN5CCC(Oc6ccnc7ccsc67)CC5)on4)c3C2=O)C(=O)N1` (stereo not shown) [Example 67, 2-(2,6-dioxopiperidin-3-yl)-4-(2-(2-(2-(2-((5-((4-(thieno[3,2-b]pyridin-7-yloxy)piperidin-1-yl)methyl)isoxazol-3-yl)oxy)ethoxy)ethoxy)ethoxy)ethoxy)isoindoline-1,3-dione], the IC50 is 100 to 300 nM.
Still for that read-out and setting: in the case of `C=CCOc1cc(CN2CCC(Oc3ccnc4ccsc34)CC2)on1` [Ref. example 3] it was 100 to 300 nM.
